Results from patent EP0654042B1, “AMYLIN MUTEINS” (PFIZER INC., priority 1992, dated 1998).
Bridge positions count the residues as written; N and C are the ends. Ends that are not written are not given here.

Assays:
muscle or muscle cells = experiment: suppression of insulin action (insulin action suppressing activity); settings: qualitative statement; no data or test conditions printed
Text: The phrase "insulin action suppressing activity", as used throughout this Specification and the appendant claims, includes, but is not limited to, the ability of a polypeptide of this invention to suppress the effect which insulin has upon muscle or muscle cells. By way of example and not of limitation, the polypeptides of this invention suppress insulin-stimulated glycogen synthesis in muscle or muscle cells.

isolated soleus muscle = settings: Leighton et al. 1988, Cooper et al. 1988; cited from earlier work

Substance	suppress insulin action (muscle or muscle cells)	insulin-stimulated glycogen synthesis (isolated soleus muscle)
Bolton-Hunter derivative of amylin: Bolton-Hunter derivative of amylin of the drawn formula wherein W is SEQUENCE ID NO:1 (KCNTATCATQRLANFLVHSSNNFGAILSSTNVGSNTY; not fully specified (C-terminus, bridges); cysteine pairing not given here; also: Bolton-Hunter reagent derivative, attachment site not given here; UniProt P10997 34-70, looked up)	will not suppress insulin action	–
amylin: 37 amino acid polypeptide with a disulfide bond between Cys 2 and 7; secretory product of pancreatic β cells (KCNTATCATQRLANFLVHSSNNFGAILSSTNVGSNTY; disulfide 2-7; not fully specified (C-terminus); UniProt P10997 34-70, looked up)	–	suppresses insulin-stimulated glycogen synthesis
